The source made the active and inactive calls. The calls are words filed in the database; no cut-off is given here.
Tests used:
[1] = Volume of distribution at steady state in Beagle dog at 0.5 mg/kg, iv upto 48 hrs by LC/MS/MS analysis; assay type: ADME, organism-based, Canis lupus familiaris; conditions: in vivo, read-out: Vdss
[2] = target: T1, Serine/threonine-protein kinase TNNI3K (Homo sapiens) (UniProt Q59H18); experiment: Inhibition of TNNI3K (unknown origin) at 10 uM
T1 sequence (whole entry): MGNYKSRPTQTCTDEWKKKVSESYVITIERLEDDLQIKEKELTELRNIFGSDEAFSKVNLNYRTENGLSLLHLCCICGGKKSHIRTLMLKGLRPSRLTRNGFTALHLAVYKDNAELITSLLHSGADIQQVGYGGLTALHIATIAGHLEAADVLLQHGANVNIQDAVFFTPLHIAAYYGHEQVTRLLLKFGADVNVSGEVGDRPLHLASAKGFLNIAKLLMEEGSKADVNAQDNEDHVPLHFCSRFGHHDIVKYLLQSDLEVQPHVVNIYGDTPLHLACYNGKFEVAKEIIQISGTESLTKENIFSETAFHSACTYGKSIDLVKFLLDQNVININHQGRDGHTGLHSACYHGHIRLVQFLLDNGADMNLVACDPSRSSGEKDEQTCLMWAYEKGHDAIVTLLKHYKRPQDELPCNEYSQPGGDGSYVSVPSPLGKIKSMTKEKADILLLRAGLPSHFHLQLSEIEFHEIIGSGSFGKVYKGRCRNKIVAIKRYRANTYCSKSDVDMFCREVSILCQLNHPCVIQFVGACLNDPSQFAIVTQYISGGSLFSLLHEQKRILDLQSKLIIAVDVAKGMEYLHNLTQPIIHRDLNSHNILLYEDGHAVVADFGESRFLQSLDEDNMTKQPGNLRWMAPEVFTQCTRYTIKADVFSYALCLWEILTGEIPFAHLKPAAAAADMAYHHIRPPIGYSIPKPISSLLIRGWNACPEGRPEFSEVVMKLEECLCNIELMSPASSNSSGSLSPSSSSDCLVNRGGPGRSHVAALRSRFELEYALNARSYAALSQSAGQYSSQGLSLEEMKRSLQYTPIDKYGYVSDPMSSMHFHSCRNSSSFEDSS

[3] = Toxicity in Sprague-Dawley rat assessed as erosion of forestomach at 5 to 50 mg/kg/day, po administered for 2 to 8 weeks; assay type: organism-based; conditions: in vivo, dose lower 5 mg/kg/day, time lower 2 weeks, dose upper 50 mg/kg/day, time upper 8 weeks
[4] = Plasma protein binding in monkey at 5 uM; assay type: ADME, cell-free, Macaca mulatta; conditions: rhesus monkey, read-out: PPB (converted)
[5] = Reduction in C26:0 LPC level in ABCD1 knock out mouse blood at or above 4 mg/kg, po qd for 105 days by LC-MS/MS analysis relative to control; assay type: functional; parameters: scale not given: the % may be the effect or the level left; conditions: time 105 day
[6] = target: T2, Very long chain fatty acid elongase 1 (Homo sapiens, UniProt Q9BW60); experiment: Inhibition of ELOVL1 in Het […] 1 patient-derived human lymphocyte assessed as reduction of C26:0 VLCFA synthesis incubated for 48 hrs by cellular assay; assay type: cell-based
T2 sequence (Q9BW60 whole entry): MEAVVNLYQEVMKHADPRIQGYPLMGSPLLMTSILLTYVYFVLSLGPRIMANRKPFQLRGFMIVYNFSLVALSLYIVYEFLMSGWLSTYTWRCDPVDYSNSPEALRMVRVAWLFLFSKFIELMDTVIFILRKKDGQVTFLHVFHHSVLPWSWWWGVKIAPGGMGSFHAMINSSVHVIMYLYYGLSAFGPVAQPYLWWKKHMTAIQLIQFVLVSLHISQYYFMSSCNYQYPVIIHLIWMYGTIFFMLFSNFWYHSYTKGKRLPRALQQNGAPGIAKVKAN

[7] = test system: Mus musculus; experiment: Reduction in C26:0/C16:0 LPC level in high fat diet fed ABCD1 knock out mouse blood at 1 to 8 mg/kg, po qd after 7 days of dosing measured on day 14 by LC-MS/MS analysis; assay type: functional, organism-based; conditions: dose 1-8 mg/kg, time 14.0 day
[8] = test system: Fibroblast; experiment: Reduction in C26:0 lysophosphatidyl choline synthesis in primary human AMN patient-derived fibroblast incubated for 48 hrs; assay type: functional, cell-based; conditions: DDE = dose-dependent effect
[9] = Toxicity in Cynomolgus monkey assessed as ataxia at 50 mg/kg/day, po administered for 14 days; assay type: organism-based, Macaca fascicularis; conditions: in vivo, 336 h, time 14 day
[10] = Oral bioavailability in Cynomolgus monkey at 3 mg/kg upto 24 hrs by LC/MS/MS analysis; assay type: ADME, organism-based, Macaca fascicularis; conditions: in vivo
[11] = target: T2, Very long chain fatty acid elongase 1; experiment: Inhibition of ELOVL1 in CALD patient-derived human lymphocyte assessed as reduction of C26:0 VLCFA synthesis incubated for 48 hrs by cellular assay; assay type: cell-based
[12] = Toxicity in Sprague-Dawley rat assessed as corneal keratitis at 5 mg/kg/day, po administered for 8 weeks by macroscopic observation analysis; assay type: organism-based; conditions: in vivo, 1344 h
[13] = Reduction in C26:0/C16:0 acyl-carnitine levels in ABCD1 knock out mouse CNS at 8 mg/kg, po qd measured after 28 days of dosing by LC-MS/MS analysis; assay type: functional; parameters: scale not given: the % may be the effect or the level left; conditions: time 28 day
[14] = target: Voltage-gated inwardly rectifying potassium channel KCNH2 (Homo sapiens, UniProt Q12809); experiment: Inhibition of human ERG by patch-clamp assay; assay type: toxicity
[15] = Plasma protein binding in rat at 5 uM; assay type: ADME, cell-free; conditions: read-out: PPB (converted)
[16] = Reduction in C26:0 LPC level in ELOVL-1 KO clonal human HEK-293T cells in presence of 13C-labeled acetate measured after 48 hrs by mass spectroscopy relative to control; assay type: functional; parameters: scale not given: the % may be the effect or the level left
[17] = test system: Mus musculus; experiment: Reduction of C26:0 LPC level in ABCD1 knock out mouse blood at 1 to 16 mg/kg, po qd measured after 6 days of dosing by LC-MS/MS analysis; assay type: functional, organism-based; conditions: dose 1-16 mg/kg, time 6.0 day
[18] = target: Rho-associated protein kinase 2 (Homo sapiens) (UniProt O75116); experiment: Inhibition of ROCK 2 (unknown origin) at 10 uM
[19] = Intrinsic clearance in rat hepatocytes assessed per million cells; assay type: ADME, cell-based, Hepatocyte; conditions: read-out: CLH
[20] = Reduction in C26:0/C16:0 LPC level in ABCD1 knock out mouse CNS at 10 mg/kg, po qd measured after 3 months of dosing by LC-MS/MS analysis; assay type: functional; parameters: scale not given: the % may be the effect or the level left; conditions: 2190 h
[21] = Cmax in Sprague-Dawley rat at 3 mg/kg, po upto 24 hrs by LC/MS/MS analysis; assay type: ADME, organism-based; parameters: dose 3 mg/kg, time < 24 hrs, route po; conditions: in vivo
[22] = test system: Fibroblast; experiment: Reduction in C26:0/C16:0 lysophosphatidyl choline levels in primary human CALD patient-derived fibroblast incubated for 48 hrs; assay type: functional, cell-based
[23] = Toxicity in Cynomolgus monkey assessed as neurological signs of convulsions at 50 mg/kg/day, po administered for 14 days; assay type: organism-based, Macaca fascicularis; conditions: in vivo, 336 h, time 14 day
[24] = Toxicity in Sprague-Dawley rat assessed as ocular focal cellular disorganization at 5 mg/kg/day, po administered for 8 weeks by microscopic observation analysis; assay type: organism-based; conditions: in vivo, 1344 h
[25] = Toxicity in juvenile Sprague-Dawley rat assessed as stomach lesions at 5 to 75 mg/kg/day, po treatment started from postnatal day 18 to 114 days; assay type: organism-based; conditions: in vivo, dose lower 5 mg/kg/day, time lower 18 day, dose upper 75 mg/kg/day, time upper 114 day
[26] = Half life in mouse at 1 mg/kg, iv upto 48 hrs by LC/MS/MS analysis; assay type: ADME, organism-based; conditions: in vivo

Chain of Rho-associated protein kinase 2 (Homo sapiens) (O75116 whole entry, looked up): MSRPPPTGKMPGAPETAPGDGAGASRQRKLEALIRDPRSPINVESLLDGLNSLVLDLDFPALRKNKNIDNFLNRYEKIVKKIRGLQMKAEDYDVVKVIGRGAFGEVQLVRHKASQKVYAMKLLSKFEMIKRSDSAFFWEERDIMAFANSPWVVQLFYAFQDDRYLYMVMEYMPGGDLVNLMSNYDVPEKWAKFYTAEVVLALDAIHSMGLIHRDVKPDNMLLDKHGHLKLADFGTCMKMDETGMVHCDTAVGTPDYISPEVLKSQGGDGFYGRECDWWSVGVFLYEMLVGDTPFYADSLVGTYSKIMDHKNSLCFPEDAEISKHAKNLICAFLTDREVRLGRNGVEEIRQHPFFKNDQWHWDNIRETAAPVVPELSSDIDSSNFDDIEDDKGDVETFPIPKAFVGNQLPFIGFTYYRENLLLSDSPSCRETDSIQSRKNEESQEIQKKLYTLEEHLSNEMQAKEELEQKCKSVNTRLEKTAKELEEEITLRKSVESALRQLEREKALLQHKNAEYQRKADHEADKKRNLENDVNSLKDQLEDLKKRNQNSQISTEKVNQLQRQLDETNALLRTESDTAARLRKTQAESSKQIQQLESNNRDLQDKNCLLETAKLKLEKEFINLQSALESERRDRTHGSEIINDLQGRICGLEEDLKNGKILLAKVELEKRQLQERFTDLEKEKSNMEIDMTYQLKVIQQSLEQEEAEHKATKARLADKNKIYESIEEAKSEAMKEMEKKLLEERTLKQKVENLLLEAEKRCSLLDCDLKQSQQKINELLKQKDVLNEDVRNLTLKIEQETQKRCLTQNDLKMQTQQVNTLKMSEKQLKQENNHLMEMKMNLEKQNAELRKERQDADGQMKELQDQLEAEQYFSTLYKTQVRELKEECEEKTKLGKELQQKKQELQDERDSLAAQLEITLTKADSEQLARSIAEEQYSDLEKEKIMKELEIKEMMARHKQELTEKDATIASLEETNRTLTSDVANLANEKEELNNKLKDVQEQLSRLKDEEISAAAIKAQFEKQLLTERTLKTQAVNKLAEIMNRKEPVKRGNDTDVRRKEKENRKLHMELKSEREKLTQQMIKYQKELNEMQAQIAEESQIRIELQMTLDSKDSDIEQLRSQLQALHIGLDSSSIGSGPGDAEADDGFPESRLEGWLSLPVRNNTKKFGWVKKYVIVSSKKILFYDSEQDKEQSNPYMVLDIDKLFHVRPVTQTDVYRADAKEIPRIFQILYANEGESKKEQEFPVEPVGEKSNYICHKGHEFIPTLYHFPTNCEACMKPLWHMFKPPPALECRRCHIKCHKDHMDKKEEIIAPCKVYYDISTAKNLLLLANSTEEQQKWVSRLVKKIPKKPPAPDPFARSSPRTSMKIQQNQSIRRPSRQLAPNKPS
Chain of Voltage-gated inwardly rectifying potassium channel KCNH2 (Q12809 whole entry): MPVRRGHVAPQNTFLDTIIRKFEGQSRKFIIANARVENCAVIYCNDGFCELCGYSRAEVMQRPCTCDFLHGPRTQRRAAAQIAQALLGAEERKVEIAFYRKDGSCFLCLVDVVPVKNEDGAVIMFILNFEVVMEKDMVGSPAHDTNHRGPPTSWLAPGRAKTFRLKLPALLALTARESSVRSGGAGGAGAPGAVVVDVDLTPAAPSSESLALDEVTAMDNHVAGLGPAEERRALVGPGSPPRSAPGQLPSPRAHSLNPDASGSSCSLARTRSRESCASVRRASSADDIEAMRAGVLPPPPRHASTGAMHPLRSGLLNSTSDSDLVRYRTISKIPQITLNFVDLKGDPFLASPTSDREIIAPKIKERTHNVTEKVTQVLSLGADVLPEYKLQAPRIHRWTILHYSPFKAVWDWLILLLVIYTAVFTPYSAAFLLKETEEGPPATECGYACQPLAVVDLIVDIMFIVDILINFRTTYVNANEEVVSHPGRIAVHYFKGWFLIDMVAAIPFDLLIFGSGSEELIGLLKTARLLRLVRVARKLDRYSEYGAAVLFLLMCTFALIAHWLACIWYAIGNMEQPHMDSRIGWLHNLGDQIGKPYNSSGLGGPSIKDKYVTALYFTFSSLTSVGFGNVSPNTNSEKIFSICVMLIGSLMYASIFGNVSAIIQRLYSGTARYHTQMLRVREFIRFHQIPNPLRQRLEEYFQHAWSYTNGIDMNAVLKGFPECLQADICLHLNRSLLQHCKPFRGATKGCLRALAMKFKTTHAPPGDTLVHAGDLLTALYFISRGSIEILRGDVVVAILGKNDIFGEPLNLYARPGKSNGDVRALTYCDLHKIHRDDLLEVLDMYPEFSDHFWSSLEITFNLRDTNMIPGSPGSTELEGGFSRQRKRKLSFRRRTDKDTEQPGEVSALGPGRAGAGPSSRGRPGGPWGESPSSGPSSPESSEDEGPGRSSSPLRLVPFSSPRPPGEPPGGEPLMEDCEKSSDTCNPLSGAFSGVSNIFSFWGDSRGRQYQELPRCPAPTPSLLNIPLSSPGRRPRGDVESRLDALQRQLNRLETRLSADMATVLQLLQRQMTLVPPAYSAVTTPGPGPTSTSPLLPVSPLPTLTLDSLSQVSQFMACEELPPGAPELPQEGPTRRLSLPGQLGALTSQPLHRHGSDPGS

For `O=C(Nc1ccn(-c2ccnc(F)c2)n1)C1(c2ccccc2F)CC1`, the Vd [1] was 7.5 L/kg, the inhibition [2] was greater than 50% and the Activity [3] was “Toxic”. It also gave a fraction unbound at 5 µM [4] of 0.094, an Activity [5] of 85% and an IC50 [6] of 5 nM. The Activity [7] was “Active”, the Activity [8] was “Dde” and the Activity [9] was “Toxic”. For the same compound, the bioavailability [10] was 100%, the IC50 [11] was 15 nM and the Activity [12] was “Toxic”. For the same compound, the Activity [13] was 55%, the IC50 [14] was greater than 30000 nM and the fraction unbound at 5 µM [15] was 0.071. For the same compound, the Activity [16] was 90%, the Activity [17] was “Active” and the inhibition [18] was greater than 50%. The hepatocyte CLint [19] was 14 µL/min/1e6 cells, the Activity [20] was 34% and the Cmax [21] was 174 ng/mL. For the same compound, the Activity [22] was “Active”, the Activity [23] was “Toxic” and the Activity [24] was “Toxic”. The Activity [25] was “Toxic” and the half-life [26] was 2.9 h.

From ChEMBL document CHEMBL5131397, “Discovery and Optimization of Pyrazole Amides as Inhibitors of ELOVL1” (J Med Chem, 2021)
